Results reported in ChEMBL document CHEMBL1201862, “PubChem BioAssay data set” (2004).
Activity calls are given as the source filed them.

Assays:
[1] = target: Protein-tyrosine kinase 2-beta (Homo sapiens, UniProt Q14289);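 also: potency of inhibitors of PYK2 kinase phosphorylation of poly-GT substrate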
[2] = target: T1, Replicative DNA helicase DnaB (Mycobacterium tuberculosis, UniProt P9WMR3); assay: DnaB intein splicing inhibitors, dose response, biochemical, cell-free fluorescence (AID 449749); format: functional
T1 sequence (P9WMR3 whole entry): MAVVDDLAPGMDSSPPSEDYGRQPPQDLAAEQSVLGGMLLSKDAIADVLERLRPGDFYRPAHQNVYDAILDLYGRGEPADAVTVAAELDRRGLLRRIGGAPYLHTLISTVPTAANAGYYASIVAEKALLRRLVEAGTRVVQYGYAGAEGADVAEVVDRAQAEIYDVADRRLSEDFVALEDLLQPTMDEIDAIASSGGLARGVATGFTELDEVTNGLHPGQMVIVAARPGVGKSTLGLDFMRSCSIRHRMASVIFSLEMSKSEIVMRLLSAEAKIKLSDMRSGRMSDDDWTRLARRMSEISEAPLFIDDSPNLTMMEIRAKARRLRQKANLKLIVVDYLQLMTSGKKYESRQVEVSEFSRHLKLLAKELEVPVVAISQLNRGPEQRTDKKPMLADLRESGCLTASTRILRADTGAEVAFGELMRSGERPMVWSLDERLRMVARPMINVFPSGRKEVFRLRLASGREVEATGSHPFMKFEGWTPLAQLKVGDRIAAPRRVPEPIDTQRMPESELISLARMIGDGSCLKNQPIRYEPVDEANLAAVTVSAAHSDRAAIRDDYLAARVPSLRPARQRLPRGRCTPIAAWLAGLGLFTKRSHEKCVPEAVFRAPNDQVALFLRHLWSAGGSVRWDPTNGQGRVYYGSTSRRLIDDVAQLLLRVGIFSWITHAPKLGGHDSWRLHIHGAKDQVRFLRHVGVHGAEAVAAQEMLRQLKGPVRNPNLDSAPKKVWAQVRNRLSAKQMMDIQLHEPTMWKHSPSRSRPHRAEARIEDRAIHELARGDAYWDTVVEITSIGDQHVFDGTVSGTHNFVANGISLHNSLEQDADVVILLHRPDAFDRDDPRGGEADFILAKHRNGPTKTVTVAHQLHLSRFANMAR

[3] = target: T2, Apoptotic protease-activating factor 1 (Homo sapiens, UniProt O14727); format: functional
T2 sequence (O14727 whole entry): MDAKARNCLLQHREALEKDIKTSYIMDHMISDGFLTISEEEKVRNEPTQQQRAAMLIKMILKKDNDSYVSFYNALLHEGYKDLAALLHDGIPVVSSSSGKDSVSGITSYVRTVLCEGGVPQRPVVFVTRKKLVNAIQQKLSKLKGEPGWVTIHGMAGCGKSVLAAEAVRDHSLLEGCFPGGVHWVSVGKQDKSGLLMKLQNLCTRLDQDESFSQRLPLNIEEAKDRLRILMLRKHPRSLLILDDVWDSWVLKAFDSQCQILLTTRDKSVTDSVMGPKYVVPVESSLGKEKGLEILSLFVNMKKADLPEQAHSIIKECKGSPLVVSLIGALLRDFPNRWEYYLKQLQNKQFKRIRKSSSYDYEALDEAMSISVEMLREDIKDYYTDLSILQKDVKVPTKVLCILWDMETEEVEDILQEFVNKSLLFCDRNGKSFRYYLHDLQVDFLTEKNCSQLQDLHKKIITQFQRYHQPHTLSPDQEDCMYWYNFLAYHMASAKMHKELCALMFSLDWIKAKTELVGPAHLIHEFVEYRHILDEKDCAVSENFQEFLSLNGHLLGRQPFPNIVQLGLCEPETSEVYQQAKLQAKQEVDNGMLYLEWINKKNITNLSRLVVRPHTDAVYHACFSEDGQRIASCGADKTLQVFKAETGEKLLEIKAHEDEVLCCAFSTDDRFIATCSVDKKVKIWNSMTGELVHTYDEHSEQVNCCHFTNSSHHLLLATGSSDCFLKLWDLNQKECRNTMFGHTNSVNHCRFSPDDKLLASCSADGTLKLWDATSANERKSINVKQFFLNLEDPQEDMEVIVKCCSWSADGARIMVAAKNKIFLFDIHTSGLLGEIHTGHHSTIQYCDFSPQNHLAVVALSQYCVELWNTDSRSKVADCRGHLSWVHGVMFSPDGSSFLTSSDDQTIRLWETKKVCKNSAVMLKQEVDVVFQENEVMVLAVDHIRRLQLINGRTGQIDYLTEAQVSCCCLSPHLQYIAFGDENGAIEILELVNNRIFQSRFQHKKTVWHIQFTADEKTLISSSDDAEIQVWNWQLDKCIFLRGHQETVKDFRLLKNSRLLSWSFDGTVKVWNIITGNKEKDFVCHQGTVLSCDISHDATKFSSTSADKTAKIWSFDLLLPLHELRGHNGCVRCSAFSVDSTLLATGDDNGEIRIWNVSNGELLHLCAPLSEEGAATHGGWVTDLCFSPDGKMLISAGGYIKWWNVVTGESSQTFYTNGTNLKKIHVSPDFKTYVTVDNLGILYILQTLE

[4] = target: T3, Protein RecA (Mycobacterium tuberculosis, UniProt P9WHJ3); assay: Fluorescence Cell-Free Homogeneous Dose Retest to Identify Inhibitors of RecA-Intein Splicing Activity. [Related pubchem assays (depositor defined):AID2097, AID2223, AID489010, AID492950]; format: functional
T3 sequence (P9WHJ3 whole entry): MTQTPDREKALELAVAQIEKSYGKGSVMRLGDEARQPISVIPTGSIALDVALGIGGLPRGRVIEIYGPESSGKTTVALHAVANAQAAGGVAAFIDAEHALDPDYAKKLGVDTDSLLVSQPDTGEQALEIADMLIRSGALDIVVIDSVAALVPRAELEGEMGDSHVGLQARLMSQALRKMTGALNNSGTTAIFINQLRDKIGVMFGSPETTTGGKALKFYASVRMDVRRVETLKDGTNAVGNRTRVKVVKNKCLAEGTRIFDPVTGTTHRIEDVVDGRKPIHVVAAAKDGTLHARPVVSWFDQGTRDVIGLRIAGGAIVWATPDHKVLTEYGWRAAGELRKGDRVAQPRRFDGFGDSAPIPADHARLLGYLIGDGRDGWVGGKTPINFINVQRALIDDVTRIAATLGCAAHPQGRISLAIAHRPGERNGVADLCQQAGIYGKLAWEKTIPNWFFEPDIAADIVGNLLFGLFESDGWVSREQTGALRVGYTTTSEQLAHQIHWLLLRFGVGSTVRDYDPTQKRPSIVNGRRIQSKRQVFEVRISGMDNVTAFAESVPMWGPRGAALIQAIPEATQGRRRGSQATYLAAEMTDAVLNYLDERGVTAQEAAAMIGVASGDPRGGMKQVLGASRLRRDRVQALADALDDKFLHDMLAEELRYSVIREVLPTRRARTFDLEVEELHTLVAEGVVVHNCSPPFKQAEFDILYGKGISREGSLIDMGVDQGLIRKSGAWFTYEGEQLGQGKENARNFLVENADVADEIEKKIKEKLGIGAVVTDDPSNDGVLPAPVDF

[5] = target: T4, Sentrin-specific protease 8 (Homo sapiens, UniProt Q96LD8); format: functional
T4 sequence (Q96LD8 whole entry): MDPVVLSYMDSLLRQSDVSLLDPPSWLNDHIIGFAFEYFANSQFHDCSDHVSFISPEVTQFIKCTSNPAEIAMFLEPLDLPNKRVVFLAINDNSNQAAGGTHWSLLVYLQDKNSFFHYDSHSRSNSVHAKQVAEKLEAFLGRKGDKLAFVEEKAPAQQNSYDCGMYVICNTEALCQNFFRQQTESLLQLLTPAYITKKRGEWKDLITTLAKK

[6] = target: T4, Sentrin-specific protease 8; format: functional; remark: listed apart in the source
[7] = cytotoxicity in HPDE-C7 cells, cell-based, fluorescence, HTS (AID 430); format: functional; details: Homo sapiens
[8] = cytotoxicity in KRAS-transformed pancreatic duct cells, primary screen, cell-based, fluorescence, HTS (AID 431); format: functional; details: Homo sapiens;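 also: cell line used: HPDE-C7K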

Sequence of Protein-tyrosine kinase 2-beta (Q14289 whole entry): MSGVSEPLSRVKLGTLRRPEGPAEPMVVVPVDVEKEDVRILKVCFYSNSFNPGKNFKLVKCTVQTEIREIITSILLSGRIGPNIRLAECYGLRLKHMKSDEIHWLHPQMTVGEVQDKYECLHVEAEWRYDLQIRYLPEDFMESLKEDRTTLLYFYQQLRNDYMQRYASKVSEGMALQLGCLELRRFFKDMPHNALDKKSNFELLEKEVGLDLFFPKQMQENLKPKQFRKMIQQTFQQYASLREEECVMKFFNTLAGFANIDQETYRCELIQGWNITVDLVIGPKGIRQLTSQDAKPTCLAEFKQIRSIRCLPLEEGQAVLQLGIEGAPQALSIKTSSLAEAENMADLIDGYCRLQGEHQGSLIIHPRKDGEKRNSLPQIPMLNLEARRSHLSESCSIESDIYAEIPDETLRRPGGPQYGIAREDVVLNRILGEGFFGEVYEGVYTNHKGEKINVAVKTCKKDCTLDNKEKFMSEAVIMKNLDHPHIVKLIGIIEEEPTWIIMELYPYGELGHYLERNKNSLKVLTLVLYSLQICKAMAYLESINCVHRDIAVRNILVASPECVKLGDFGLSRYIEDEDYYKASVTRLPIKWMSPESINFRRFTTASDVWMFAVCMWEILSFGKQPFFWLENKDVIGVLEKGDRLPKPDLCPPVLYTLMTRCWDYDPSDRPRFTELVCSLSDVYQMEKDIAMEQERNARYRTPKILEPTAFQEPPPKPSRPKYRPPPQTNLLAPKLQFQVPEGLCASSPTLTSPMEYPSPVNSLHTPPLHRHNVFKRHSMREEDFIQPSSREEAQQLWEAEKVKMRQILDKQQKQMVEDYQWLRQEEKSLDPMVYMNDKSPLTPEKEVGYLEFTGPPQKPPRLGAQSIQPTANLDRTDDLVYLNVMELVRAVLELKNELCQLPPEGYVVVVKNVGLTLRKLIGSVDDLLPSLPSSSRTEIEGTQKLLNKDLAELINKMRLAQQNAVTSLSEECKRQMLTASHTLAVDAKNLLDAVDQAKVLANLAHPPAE

Compound	IC50 [1]	AC50 [2]	IC50 [3]	EC50 [4]	IC50 [5]	IC50 [6]	EC50 [7]	EC50 [8]
O=C1Cc2ccccc2C(=O)N1CCc1ccccc1	> 69.5 µM (not active)	2.17 µM (active)	4.03 µM (active)	2.99 µM (active)	2.89 µM (active)	0.148 µM (active)	–	–
COCCNC(=O)c1c(N)n(CCC2=CCCCC2)c2nc3ccccc3nc12	–	–	–	–	–	–	> 20 µM (not active)	> 20 µM (not active)
